According to ChEMBL document CHEMBL1139916, “6-hydroxy to 6'''-amino tethered ring-to-ring macrocyclic aminoglycosides as probes for APH(3')-IIIa kinase” (2007):

What was measured:
Staphylococcus aureus = experiment: Growth inhibition of Staphylococcus aureus; format: functional
Escherichia coli = experiment: Growth inhibition of Escherichia coli; format: functional
[1] = Activity of bacterial APH(3')-3a kinase assessed high affinity phosphorylation
[2] = Activity of bacterial APH(3')-3a kinase assessed low affinity phosphorylation
[3] = Ratio of Kcat/Km of bacterial APH(3')-3a kinase-mediated high affinity phosphorylation
[4] = Ratio of Kcat/Km of bacterial APH(3')-3a kinase-mediated low affinity phosphorylation
[5] = Activity of bacterial APH(3')-3a kinase
[6] = Ratio of Kcat/Km of bacterial APH(3')-3a kinase

| MIC (Staphylococcus aureus) [µg/mL] | MIC (Escherichia coli) [µg/mL] | Km [5] [µM] | Vmax [5] [µM/s] | kcat [5] [s⁻¹] | kcat/Km [6] | Structure (SMILES) | Km [1] [µM] | Vmax [1] [µM/s] | kcat [1] [s⁻¹] | Km [2] [µM] | Vmax [2] [µM/s] | kcat [2] [s⁻¹] | kcat/Km [3] | kcat/Km [4] |
| --- | --- | --- | --- | --- | --- | --- | --- | --- | --- | --- | --- | --- | --- | --- |
| > 40 | > 10 | – | – | – | – | N[C@H]1[C@H]2O[C@H]3[C@@H](O)[C@H](O[C@@H]4[C@@H](OCCCCCNC[C@H](O2)[C@@H](O)[C@@H]1O)[C@H](N)C[C@H](N)[C@H]4O[C@H]1O[C@H](CO)[C@@H](O)[C@H](O)[C@H]1N)O[C@@H]3CO | – | – | – | – | – | – | – | – |
| – | – | – | – | – | – | NC[C@@H]1O[C@H](O[C@H]2[C@@H](O)[C@H](O[C@@H]3[C@@H](O)[C@H](N)C[C@H](N)[C@H]3O[C@H]3O[C@H](CO)[C@@H](O)[C@H](O)[C@H]3N)O[C@@H]2CO)[C@H](N)[C@@H](O)[C@@H]1O | 16.9 | 0.183 | 0.19 | 51.1 | 0.292 | 0.304 | 1.12 10^4/M/s | 5.95 10^3/M/s |
| > 40 | > 10 | 21.8 | 0.07 | 0.073 | 3.35 10^3/M/s | N[C@H]1[C@H]2O[C@H]3[C@@H](O)[C@H](O[C@@H]4[C@@H](OCCCCC(=O)NC[C@H](O2)[C@@H](O)[C@@H]1O)[C@H](N)C[C@H](N)[C@H]4O[C@H]1O[C@H](CO)[C@@H](O)[C@H](O)[C@H]1N)O[C@@H]3CO | – | – | – | – | – | – | – | – |
